# Test results reported in US10070660B2, “Pet food palatability with antimicrobial properties based on organic acids” (KEMIN INDUSTRIES, INC., priority 2012, dated 2018).
# Columns and labels:
# [1] = system: Salmonella (five Salmonella enterica serovars); assay: Dog kibble challenge with dried five strain Salmonella cocktail inoculum; type: cell-based; conditions: dog kibble challenge
# Protocol: (§1) One ml of each Salmonella culture was separately inoculated into a beaker containing tempered (ambient), sterilized MBM which was then incubated at 37° C. for 48 hours. Inoculated MBM was dispensed (approx. 200 g) into sterile 250 ml centrifuge bottles and centrifuged at 5,000 rpm for 10 minutes. The supernatant was decanted and autoclaved for disposal. The pellets were suspended in 10 ml TSB-20% glycerol. Suspensions (approximately 150-160 g) were transferred to sterilized 250 ml polycarbonate straight side wide mouth jars with lids (Nalgene, Thermo Scientific). Jars containing MBM-Salmonella suspensions were immediately frozen at −70° C. for 1 hour. Frozen MBM-Salmonella suspensions were lyophilized using a FreeZone-1 Liter benchtop freeze dry system (Labconco) (approx. 96 hours, −50° C.). Each lyophilized Salmonella culture was pulverized to a fine powder using a sterile mortar and pestle. Twenty g of each of the five lyophilized Salmonella cultures was combined in a sterile wide mouth glass jar to make the dried Salmonella cocktail inoculum. […] Solidified plates were incubated inverted at 37° C. for 16-18 hours. Visible colonies were counted and colony forming units per gram were calculated (CFU/g). […] Kibble and inoculum were mixed together for five minutes by hand in a plastic zip top bag, and allowed to rest for 1 hour prior to sampling. Coated, un-inoculated kibble was also included in the study and tested for Salmonella (direct plating and FDA BAM), total aerobic bacteria, mold and yeast counts, pH, percent moisture, and water activity. For each analysis time point challenged kibble was sampled in triplicate. Kibbles were stored at ambient temperature.
# (§2) Challenged kibble samples bags were mixed thoroughly, then 5.00 g (±0.01) was aseptically weighed into a sterile plastic bag and diluted with 45 ml sterile Phosphate Buffer (Butterfield) diluent (BPB) containing (g/l) KH2PO4 34.0, pH adjusted to 7.2 with 1N sodium hydroxide and homogenized using a Stomacher (Seward Stomacher 80) for 1 minute and serially diluted in BPB for plating. The plates are poured with tempered (45° C.) XLD agar. After solidification, plates were inverted and placed in an incubator (37° C.). Colonies were counted and CFU/g was calculated. The counts for each triplicate sample were averaged and expressed as log CFU/g. Those samples of which were below the detection limit of <10 CFU/g were assigned 0 log CFU/g for the purpose of statistical analysis. Analysis of Variance using the LSD separation of means method was performed to analyze the data using StatGraphics software (StatPoint Technologies, Inc. Warrenton, Va.).
# Dry dog palatants were formulated with fumaric acid or SBS to deliver 0.5% acid to the surface of the kibble. The effect of each acid on Salmonella challenged on the surface of dog kibble was examined. Dog kibbles were challenged with dried five strain Salmonella cocktail inoculum.
# The effect of each acid on Salmonella challenged on the surface of dog kibble was examined. Dog kibbles were challenged with dried five strain Salmonella cocktail inoculum prep.
# cats = assay: Cat palatability, two-pan method (intake ratio); type: in vivo; conditions: for IR-A: Ration B incumbent; for effect on palatability / taste (in words): summary statement, no trial details
# [2] = system: Salmonella (five Salmonella enterica serovars); assay: Cat kibble challenge with dried five strain Salmonella cocktail inoculum; type: cell-based; conditions: for Salmonella counts on challenged cat kibble vs control palatant (in words): cat kibble challenge
# Protocol: as §1, §2
# All procedures for the Phase 3 kibble challenge were conducted as described for Phase 2.
# [3] = Example 4 cat trials, formula 89-87 or 89-145 vs incumbent dry palatant
# [4] = First set, Prototype 89-87 at 2.5%, 0.25% acid on kibble
# [5] = First set, Prototype 89-87 at 2.5%, 0.5% total acid on kibble
# [6] = Second set, Formula 89-87, 0.25% acid on kibble
# [7] = Table 14, single acid 0.5% on cat kibble, day 0
# [8] = Table 14, single acid 0.5% on cat kibble, day 1
# [9] = Table 14, single acid 0.5% on cat kibble, day 3
# [10] = Table 14, single acid 0.5% on cat kibble, day 7
# [11] = Table 14, single acid 0.5% on cat kibble, day 14
# [12] = Table 14, single acid 0.5% on cat kibble, day 23
# [13] = Second set, Formula 89-87, 0.5% total acid on kibble
smiles,measurement,setting,value
"O=C(O)CCC(=O)O [Suc, succinic acid]",Salmonella counts on challenged dog kibble vs control palatant (in words),[1],effective at significantly reducing Salmonella
same,palatability (in words),cats; [3],palatable alternate to fumaric acid
same,IR-A,cats; [4],0.56 (N.S.)
same,IR-A,cats; [5],0.54 (N.S.)
same,Salmonella counts on challenged cat kibble vs control palatant (in words),[2],effective at significantly reducing Salmonella
"C/C=C/C=C/C(=O)O [Sorbic Acid, sorbic acid]",Salmonella counts on challenged dog kibble vs control palatant (in words),[1],effective at significantly reducing Salmonella
same,IR-A,"cats; Confirmation trials, Prototype 89-87, 0.5% total acid on kibble",0.59 p ≤ 0.001)
same,palatability (in words),"cats; Example 4 cat trials, formula 89-87 or 89-145 vs incumbent dry palatant, listed as Sorbic acid",scored significantly higher than the incumbent flavor
same,palatability (in words),"cats; Example 4 cat trials, formula 89-87 or 89-145 vs incumbent dry palatant, listed as sorbic acid",remained high
same,IR-A,cats; [4],0.74 (p ≤ 0.001)
same,IR-A,cats; [5],0.70 (p ≤ 0.001)
same,Salmonella,"[2]; Table 12, 0.50% total acid on cat kibble, day 0",3.50 ± 0.06^Ba log CFU/g
same,Salmonella,"[2]; Table 12, 0.50% total acid on cat kibble, day 1",2.10 ± 0.08^Bb log CFU/g
same,Salmonella,"[2]; Table 12, 0.50% total acid on cat kibble, day 5",0.77 ± 0.39^Bc log CFU/g
same,Salmonella,"[2]; Table 12, 0.50% total acid on cat kibble, day 7",0.49 ± 0.49^Bc log CFU/g
same,Salmonella,"[2]; Table 12, 0.50% total acid on cat kibble, day 14",0.67 ± 0.33^Bc log CFU/g
same,Salmonella,"[2]; Table 12, 0.50% total acid on cat kibble, day 21",0.00 ± 0.00^Bc log CFU/g
same,Salmonella counts on challenged cat kibble vs control palatant (in words),[2]; listed as sorbic,effective at significantly reducing Salmonella
same,Salmonella counts on challenged cat kibble vs control palatant (in words),[2]; listed as sorbic acid,significantly lower
"O=C(O)/C=C\C(=O)O [maleic acid, reference compound]",effect on palatability / taste (in words),cats,"repulsive, astringent taste"
"O=C(OC[C@H]1O[C@@H](OC(=O)c2cc(O)c(O)c(OC(=O)c3cc(O)c(O)c(O)c3)c2)[C@H](OC(=O)c2cc(O)c(O)c(OC(=O)c3cc(O)c(O)c(O)c3)c2)[C@@H](OC(=O)c2cc(O)c(O)c(OC(=O)c3cc(O)c(O)c(O)c3)c2)[C@@H]1OC(=O)c1cc(O)c(O)c(OC(=O)c2cc(O)c(O)c(O)c2)c1)c1cc(O)c(O)c(OC(=O)c2cc(O)c(O)c(O)c2)c1 [TA, tannic acid]",palatability (in words),cats; [3],acceptable palatability
same,IR-A,cats; [6],0.55 (N.S)
same,Salmonella,[2]; [7],3.19 ± 0.17^Aa log CFU/g
same,Salmonella,[2]; [8],2.51 ± 0.26^Ab log CFU/g
same,Salmonella,[2]; [9],2.05 ± 0.18^Ab log CFU/g
same,Salmonella,[2]; [10],1.50 ± 0.10^Ac log CFU/g
same,Salmonella,[2]; [11],1.46 ± 0.16^Ac log CFU/g
same,Salmonella,[2]; [12],0.00 ± 0.00^Bd log CFU/g
same,Salmonella counts on challenged cat kibble vs control palatant (in words),[2],effective at significantly reducing Salmonella
"O=C(O)CC(O)(CC(=O)O)C(=O)O [CA, citric acid]",palatability (in words),cats; [3],adequate palatability
same,IR-A,cats; [13],0.46% (N.S.)
same,Salmonella,[2]; [7],2.05 ± 0.05^Ba log CFU/g
same,Salmonella,[2]; [8],1.54 ± 0.16^BCDab log CFU/g
same,Salmonella,[2]; [9],1.46 ± 0.09^ABb log CFU/g
same,Salmonella,[2]; [10],0.77 ± 0.39^ABc log CFU/g
same,Salmonella,[2]; [11],0.00 ± 0.00^Bd log CFU/g
same,Salmonella,[2]; [12],0.00 ± 0.00^Bd log CFU/g
same,Salmonella counts on challenged cat kibble vs control palatant (in words),[2],effective at significantly reducing Salmonella
"O=C(O)CC(O)C(=O)O (stereo not drawn) [Malic acid, reference compound]",effect on palatability / taste (in words),cats,adverse effects on palatability
"O=C(O)c1cc(O)c(O)c(O)c1 [GA, gallic acid]",palatability (in words),cats; [3],very good palatability
same,IR-A,cats; [6],0.55 (N.S.)
same,IR-A,cats; [13],0.70 (p ≤ 0.001)
"O=C(O)C(O)C(O)C(=O)O (stereo not drawn) [tartaric acid, reference compound]",palatability (in words),"cats; Example 1 cat trials, dry palatant 1.5% on kibble, vs benchmark",significant declines in palatability
same,IR,"cats; Trial 412, 33% tartaric acid in formula, palatant 1.5% on kibble, vs name brand cat food",0.24
same,effect on palatability / taste (in words),cats,adverse effects on palatability
